This is an account of results in PubChem BioAssay AID256 (DTP/NCI, 2004).

The assay concerns CD2F1 mice, L1210 leukemia ip, survival T/C. Briefly: NCI In Vivo Anticancer Drug Screen. Data for tumor model L1210 Leukemia (intraperitoneal) in CD2F1 (CDF1) mice. As to conditions: higher = longer survival. An outline of the steps:
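Mice carrying a transplanted tumor received test compound or vehicle alone. The value is the measurement in the treated group divided by that in the vehicle-treated control group.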

Toxic doses and inconclusive results are not listed.

As to `NC(Cc1cc([N+](=O)[O-])ccc1CN(CCCl)CCCl)C(=O)O` (centres undefined), the T/C (endpoint: mean survival time, dose: 0.25 mg/kg/injection, schedule: Q04DX003 (ip), vehicle: Klucel (hydroxypropylcellulose) (HPC)) is 109 % of control; the T/C (endpoint: mean survival time, dose: 0.5 mg/kg/injection, schedule: Q04DX003 (ip), vehicle: Klucel (hydroxypropylcellulose) (HPC)) was 111 % of control; the T/C (endpoint: mean survival time, dose: 0.75 mg/kg/injection, schedule: Q01DX001 (ip), vehicle: Klucel (hydroxypropylcellulose) (HPC)) was 103 % of control; the T/C (endpoint: mean survival time, dose: 1.0 mg/kg/injection, schedule: Q04DX003 (ip), vehicle: Klucel (hydroxypropylcellulose) (HPC)) was 115 % of control; the T/C (endpoint: mean survival time, dose: 1.5 mg/kg/injection, schedule: Q01DX001 (ip), vehicle: Klucel (hydroxypropylcellulose) (HPC)) was 114 % of control; the T/C (endpoint: mean survival time, dose: 3.0 mg/kg/injection, schedule: Q01DX001 (ip), vehicle: Klucel (hydroxypropylcellulose) (HPC)) was 123 % of control. The T/C is, setting by setting: (endpoint: mean survival time, dose: 4.0 mg/kg/injection, schedule: Q01DX009 (ip), vehicle: Klucel (hydroxypropylcellulose) (HPC)) 158 % of control; (endpoint: mean survival time, dose: 8.0 mg/kg/injection, schedule: Q01DX009 (ip), vehicle: Klucel (hydroxypropylcellulose) (HPC)) 123 % of control; (endpoint: median survival time, dose: 0.75 mg/kg/injection, schedule: Q01DX001 (ip), vehicle: Klucel (hydroxypropylcellulose) (HPC)) 115 % of control; (endpoint: median survival time, dose: 1.5 mg/kg/injection, schedule: Q01DX001 (ip), vehicle: Klucel (hydroxypropylcellulose) (HPC)) 111 % of control; (endpoint: median survival time, dose: 1.88 mg/kg/injection, schedule: Q04DX003 (ip), vehicle: Klucel (hydroxypropylcellulose) (HPC)) 362 % of control; (endpoint: median survival time, dose: 3.0 mg/kg/injection, schedule: Q01DX001 (ip), vehicle: Klucel (hydroxypropylcellulose) (HPC)) 119 % of control. Also, the T/C is 362 % of control (endpoint: median survival time, dose: 3.12 mg/kg/injection, schedule: Q01DX001 (ip), vehicle: Klucel (hydroxypropylcellulose) (HPC)); 114 % of control (endpoint: median survival time, dose: 6.25 mg/kg/injection, schedule: Q01DX001 (ip), vehicle: Klucel (hydroxypropylcellulose) (HPC)); 124 % of control (endpoint: median survival time, dose: 12.5 mg/kg/injection, schedule: Q01DX001 (ip), vehicle: Klucel (hydroxypropylcellulose) (HPC)); 121 % of control (endpoint: median survival time, dose: 25.0 mg/kg/injection, schedule: Q01DX001 (ip), vehicle: Klucel (hydroxypropylcellulose) (HPC)).

`COc1ccc(/C=C(\C#N)C(=O)NCCc2ccc(OC)c(OC)c2)cc1OC`: the T/C is 95 % of control (endpoint: mean survival time, dose: 100.0 mg/kg/injection, schedule: Q04DX002 (ip), vehicle: saline with Tween-80); 95 % of control (endpoint: mean survival time, dose: 200.0 mg/kg/injection, schedule: Q04DX002 (ip), vehicle: saline with Tween-80); 95 % of control (endpoint: mean survival time, dose: 400.0 mg/kg/injection, schedule: Q04DX002 (ip), vehicle: saline with Tween-80).

As for `CCOC(=O)c1[nH]c2cccc3c2c1CC(Br)C3=O` (centres undefined), the T/C was 120 % of control (endpoint: median survival time, dose: 12.5 mg/kg/injection, schedule: Q01DX009 (ip), vehicle: saline with Tween-80); 109 % of control (endpoint: median survival time, dose: 25.0 mg/kg/injection, schedule: Q01DX009 (ip), vehicle: saline with Tween-80); 109 % of control (endpoint: median survival time, dose: 50.0 mg/kg/injection, schedule: Q01DX009 (ip), vehicle: saline with Tween-80); 107 % of control (endpoint: median survival time, dose: 100.0 mg/kg/injection, schedule: Q01DX009 (ip), vehicle: saline with Tween-80).

As to `CCN(CC)C(=S)[S][Pb]([CH2]C)([CH2]C)[CH2]C`, the T/C (endpoint: mean survival time, dose: 6.25 mg/kg/injection, schedule: Q01DX009 (ip), vehicle: saline with Tween-80) is 96 % of control.

Take `CCCCCCCCCCCCCCCc1ccc(C(=O)C[n+]2ccccc2)cc1`: the T/C is 117 % of control (endpoint: mean survival time, dose: 12.5 mg/kg/injection, schedule: Q01DX009 (ip), vehicle: saline with Tween-80); 103 % of control (endpoint: mean survival time, dose: 12.5 mg/kg/injection, schedule: Q04DX003 (ip), vehicle: saline with Tween-80); 106 % of control (endpoint: mean survival time, dose: 25.0 mg/kg/injection, schedule: Q04DX003 (ip), vehicle: saline with Tween-80); 111 % of control (endpoint: mean survival time, dose: 50.0 mg/kg/injection, schedule: Q04DX003 (ip), vehicle: saline with Tween-80).

As to `CCOC(=O)c1cnc2c(cnn2CC)c1N1CCN(CCO)CC1`, the T/C (endpoint: mean survival time, dose: 100.0 mg/kg/injection, schedule: Q04DX003 (ip), vehicle: Klucel (hydroxypropylcellulose) (HPC)) was 101 % of control.

On to `S=c1[nH]nc2n1NC(c1ccccc1)=NN2`, for which the T/C was 104 % of control (endpoint: mean survival time, dose: 100.0 mg/kg/injection, schedule: Q01DX009 (ip), vehicle: saline with Tween-80); 91 % of control (endpoint: mean survival time, dose: 100.0 mg/kg/injection, schedule: Q04DX003 (ip), vehicle: saline with Tween-80); 112 % of control (endpoint: mean survival time, dose: 200.0 mg/kg/injection, schedule: Q01DX009 (ip), vehicle: saline with Tween-80); 96 % of control (endpoint: mean survival time, dose: 200.0 mg/kg/injection, schedule: Q04DX003 (ip), vehicle: saline with Tween-80); 106 % of control (endpoint: mean survival time, dose: 400.0 mg/kg/injection, schedule: Q01DX009 (ip), vehicle: saline with Tween-80); 101 % of control (endpoint: mean survival time, dose: 400.0 mg/kg/injection, schedule: Q04DX003 (ip), vehicle: saline with Tween-80).

In the case of `O=S(=O)(O)O.[NH-]C1CCCCC1[NH-].[Pt+2]` (centres undefined), the T/C reads like this: (endpoint: mean survival time, dose: 0.04 mg/kg/injection, schedule: Q01DX009 (ip), vehicle: water) 109 % of control; (endpoint: mean survival time, dose: 0.05 mg/kg/injection, schedule: Q04DX003 (ip), vehicle: water) 110 % of control; (endpoint: mean survival time, dose: 0.32 mg/kg/injection, schedule: Q01DX001 (ip), vehicle: water) 120 % of control; (endpoint: mean survival time, dose: 0.63 mg/kg/injection, schedule: Q01DX001 (ip), vehicle: dextrose) 124 % of control; (endpoint: mean survival time, dose: 0.63 mg/kg/injection, schedule: Q04DX003 (oral), vehicle: water) 96 % of control; (endpoint: mean survival time, dose: 0.78 mg/kg/injection, schedule: Q04DX003 (ip), vehicle: dextrose) 119 % of control. Further, the T/C is 100 % of control (endpoint: mean survival time, dose: 1.2 mg/kg/injection, schedule: Q01DX009 (oral), vehicle: water); 119 % of control (endpoint: mean survival time, dose: 1.25 mg/kg/injection, schedule: Q01DX001 (ip), vehicle: dextrose); 98 % of control (endpoint: mean survival time, dose: 1.25 mg/kg/injection, schedule: Q01DX001 (oral), vehicle: water); 98 % of control (endpoint: mean survival time, dose: 1.25 mg/kg/injection, schedule: Q04DX003 (oral), vehicle: water); 100 % of control (endpoint: mean survival time, dose: 1.56 mg/kg/injection, schedule: Q04DX003 (ip), vehicle: saline with Tween-80); 97 % of control (endpoint: mean survival time, dose: 2.4 mg/kg/injection, schedule: Q01DX009 (oral), vehicle: water). The T/C reads like this: (endpoint: mean survival time, dose: 2.5 mg/kg/injection, schedule: Q01DX001 (ip), vehicle: dextrose) 124 % of control; (endpoint: mean survival time, dose: 3.12 mg/kg/injection, schedule: Q04DX003 (ip), vehicle: saline with Tween-80) 110 % of control; (endpoint: mean survival time, dose: 5.0 mg/kg/injection, schedule: Q01DX001 (oral), vehicle: water) 100 % of control; (endpoint: mean survival time, dose: 10.0 mg/kg/injection, schedule: Q01DX001 (ip), vehicle: dextrose) 109 % of control; (endpoint: mean survival time, dose: 10.0 mg/kg/injection, schedule: Q04DX003 (oral), vehicle: water) 98 % of control; (endpoint: mean survival time, dose: 12.5 mg/kg/injection, schedule: Q04DX003 (ip), vehicle: dextrose) 110 % of control. For the same compound, the T/C (endpoint: mean survival time, dose: 12.5 mg/kg/injection, schedule: Q04DX003 (ip), vehicle: saline) was 93 % of control and the T/C (endpoint: mean survival time, dose: 40.0 mg/kg/injection, schedule: Q01DX001 (oral), vehicle: water) was 109 % of control.

Regarding `Cc1cc(OC(=O)N2CCCCC2)c(C(C)C)cc1[N+](C)(C)C`, the T/C runs as follows: (endpoint: mean survival time, dose: 0.06 mg/kg/injection, schedule: Q01DX009 (ip), vehicle: saline) 95 % of control; (endpoint: mean survival time, dose: 0.07 mg/kg/injection, schedule: Q04DX003 (ip), vehicle: saline sonified) 97 % of control; (endpoint: mean survival time, dose: 0.13 mg/kg/injection, schedule: Q04DX003 (ip), vehicle: saline sonified) 106 % of control; (endpoint: mean survival time, dose: 0.25 mg/kg/injection, schedule: Q04DX003 (ip), vehicle: saline sonified) 100 % of control.
